Source: the NIST ThermoML archive (doi:10.1021/je034159d)
Numbers after ± are expanded uncertainties.

Tests used:
[1] = refractive index (Na D-line) (dimensionless); details: 313.15 K; 101.33 kPa; Liquid; refractometer
[2] = 313.15 K; 101.33 kPa; Liquid; Vibrating tube method

refractive index [1]	mass density [2]	Compound
1.3754 ± 0.0001	952.43 ± 0.08 kg/m3	CCOC(=O)OCC [diethyl carbonate]
1.359 ± 0.0001	1043.19 ± 0.08 kg/m3	COC(=O)OC [dimethyl carbonate]
